The values that follow come from article PMC8892843 (The Science of the total environment, 2021).

SMILES strings stand for the structures.

For test [1], the target named is nicotinic receptor (nAChR) found in C. dilutus. Put plainly: competitive [3H]imidacloprid displacement, filtration. Type of test: binding, Chironomus dilutus. As to conditions: 1 nM [3H]IMI, pH 7.0, 20 °C, crude microsomes 100 μg/mL.
In test [2] the target is nicotinic receptor (nAChR) found in H. azteca. Described as above. Type of test: binding, Hyalella azteca. The conditions noted are these: 1 nM [3H]IMI, pH 7.0, 20 °C, crude microsomes 100 μg/mL.

By IC50 is commonly meant the concentration that inhibits the measured activity by half. A higher IC50 goes with weaker potency. Turning to `O=[N+]([O-])N=C1NCCN1Cc1ccc(Cl)nc1` [imidacloprid], the IC50 in test [1] came to 8.04 nM; in test [2] it was 8.86 nM.
